The results in this text go back to patent publication US9751857B2, “Hepatitis B antiviral agents” (NOVIRA THERAPEUTICS, INC., priority 2011, dated 2017).

Test [1] has as its target HBV C150Bo capsid protein (HBV CA protein) (Hepatitis B virus genotype D subtype adw, UniProt P03147, C107A/C48A/C61A/R150C). Description: HBV assembly assay (fluorescence quenching in vitro assembly). The format is biochemical. The note with it: at 10 μM.
Test [2] deals with HBV replication in HepG2-2.2.15 cells. Description: Dot-blot assay of HBV replication. The note with it: Hepatitis B virus, 144 h. In kind it is cell-based. On the procedure:
Compounds active in the HBV assembly assay are tested for their activity and toxicity in cellular assay. In the first anti-viral assay, the ability of compounds to inhibit HBV replication in an HBV-producing hepatoma cell line using the dot-blot method is evaluated.
Briefly, confluent monolayers of HepG2-2.2.15 cells are incubated with complete medium containing various concentrations of a test compound. Three days later, the culture medium is replaced with fresh medium containing the appropriately diluted test compound. Six days following the initial administration of the test compound, the cell culture supernatant is collected, and cell lysis is performed. The samples are applied onto Nylos membranes and DNA is immobilized to the membrane by UV cross-linking. After pre-hybridization, the HBV probe is added and the hybridization is performed overnight. The membranes are exposed to the Kodak films; antiviral activity is calculated from the reduction in HBV DNA levels (EC50). The EC50 for antiviral activity is calculated from the dose response curves of active compounds.
In the first anti-viral assay, the ability of compounds to inhibit HBV replication in an HBV-producing hepatoma cell line using the dot-blot method was evaluated.
Confluent monolayers of HepG2-2.2.15 cells were incubated with complete medium containing various concentrations of a test compound. Three days later, the culture medium was replaced with fresh medium containing the appropriately diluted test compound. Six days following the initial administration of the test compound, the cell culture supernatant was collected, and cell lysis was performed. The samples were applied onto Nylos membranes and DNA was immobilized to the membrane by UV cross-linking. After pre-hybridization, the HBV probe was added and the hybridization was performed overnight. The membranes were exposed to the Kodak films; antiviral activity was calculated from the reduction in HBV DNA levels (EC50). The EC50 for antiviral activity was calculated from the dose response curves of active compounds. […]

Where only a bound is given, the exact number is not on record here.

Chain of HBV C150Bo capsid protein (HBV CA protein) (P03147 1-150 C48A/C61A/C107A/R150C): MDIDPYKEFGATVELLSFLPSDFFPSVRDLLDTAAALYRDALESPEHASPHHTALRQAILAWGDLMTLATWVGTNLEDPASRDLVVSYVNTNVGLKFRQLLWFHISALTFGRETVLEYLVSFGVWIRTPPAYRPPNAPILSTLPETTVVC

Take `O=C(Nc1cc(F)c(F)c(F)c1)c1cc(S(=O)(=O)N2CC(O)C2)ccc1Cl` [compound 1153]: the “Activity in HBV assembly assay” value in test [1] is recorded as “+ (‘+’ indicates >50% activity at 10 μM)”. Besides, the inhibition at 10 µM in test [2] was over 50%.

For the molecule `O=C(Nc1ccc(F)c(Cl)c1)c1cccc(S(=O)(=O)NC2CCC(O)C2)c1` (stereo not shown) [compound 1157], in test [1], the “Activity in HBV assembly assay” value is on record as “+ (‘+’ indicates >50% activity at 10 μM)”. In test [2], this molecule gave an inhibition at 10 µM of over 50%.

Consider `CC1(O)CCN(S(=O)(=O)c2cc(C(=O)Nc3cc(F)c(F)c(F)c3)ccc2F)CC1` [compound 1161], for which, in test [1], the “Activity in HBV assembly assay” value was “+ (‘+’ indicates >50% activity at 10 μM)”. For the same molecule, the inhibition at 10 µM in test [2] was over 50%.

Take `O=C(Nc1cc(F)c(F)c(F)c1)c1cc(S(=O)(=O)N2CCC(O)(CO)CC2)ccc1Cl` [compound 1189]: the “Activity in HBV assembly assay” value in test [1] is “+ (‘+’ indicates >50% activity at 10 μM)”. In addition, in test [2], the inhibition at 10 µM was over 50%.

Consider `O=C(Nc1cc(F)c(F)c(F)c1)c1ccc(F)c(S(=O)(=O)N2CCC(O)C(CF)C2)c1` (stereo not shown) [compound 1283], for which the “Activity in HBV assembly assay” value in test [1] was “+ (‘+’ indicates >50% activity at 10 μM)”. Besides, in test [2], the inhibition at 10 µM was over 50%.

Take `O=C(Nc1ccc(F)c(F)c1)c1cc(S(=O)(=O)N2CCC(O)CC2)c(F)cc1Cl` [compound 1338]: the “Activity in HBV assembly assay” value in test [1] was “+ (‘+’ indicates >50% activity at 10 μM)”. This molecule displayed an inhibition at 10 µM in test [2] of over 50%.

Take `O=C(Nc1cc(F)c(F)c(F)c1)c1cc(S(=O)(=O)N2CC(O)C2)c(F)cc1Cl` [compound 1339]: in test [1], the “Activity in HBV assembly assay” value was “+ (‘+’ indicates >50% activity at 10 μM)”. In test [2], this molecule had an inhibition at 10 µM of over 50%.

For `CN(CCO)S(=O)(=O)c1cc(C(=O)Nc2ccc(F)c(Cl)c2)c(Cl)cc1F` [compound 1345], the “Activity in HBV assembly assay” value in test [1] was “+ (‘+’ indicates >50% activity at 10 μM)”. Also, the inhibition at 10 µM in test [2] was over 50%.

Turning to `O=C(Nc1cc(F)c(F)c(F)c1)c1cc(S(=O)(=O)N2CCC(O)(CO)CC2)c(F)cc1Cl` [compound 1379], the “Activity in HBV assembly assay” value in test [1] is on record as “+ (‘+’ indicates >50% activity at 10 μM)”. In addition, the inhibition at 10 µM in test [2] is over 50%.

As to `O=C(Nc1ccc(F)c(Cl)c1)c1cc(S(=O)(=O)N2CCC(O)(CO)CC2)c(F)cc1Cl` [compound 1380], the “Activity in HBV assembly assay” value in test [1] is on record as “+ (‘+’ indicates >50% activity at 10 μM)”. In test [2], this molecule returned an inhibition at 10 µM of over 50%.

Regarding `O=C(Nc1cc(F)c(F)c(F)c1)c1cc(S(=O)(=O)NC2COCC2O)c(F)cc1Cl` (stereo not shown) [compound 1404], the “Activity in HBV assembly assay” value in test [1] is “+ (‘+’ indicates >50% activity at 10 μM)”. In addition, the inhibition at 10 µM in test [2] is over 50%.

Take `O=C(Nc1ccc(F)c(Cl)c1)c1cc(S(=O)(=O)N2CC(O)C(F)C2)c(F)cc1Cl` (stereo not shown) [compound 1410]: the “Activity in HBV assembly assay” value in test [1] is recorded as “+ (‘+’ indicates >50% activity at 10 μM)”. Also, the inhibition at 10 µM in test [2] was over 50%.

Turning to `O=C(Nc1ccc(F)c(F)c1)c1cc(S(=O)(=O)N2CC(O)C(F)C2)c(F)cc1Cl` (stereo not shown) [compound 1413], in test [1], the “Activity in HBV assembly assay” value is recorded as “+ (‘+’ indicates >50% activity at 10 μM)”. Also, in test [2], the inhibition at 10 µM was over 50%.

As for `O=C(Nc1cc(F)c(F)c(F)c1)c1ccc(CO)c(S(=O)(=O)N2CCC(O)CC2)c1` [compound 1420], the “Activity in HBV assembly assay” value in test [1] is “+ (‘+’ indicates >50% activity at 10 μM)”. Also, in test [2], the inhibition at 10 µM was over 50%.

The inhibition is the relative decrease from the control value, in per cent.
